Assay type in all cases: cell-based
Assay [1] relates to Sp1, Sp3, and Sp4 proteins. As to the kind of experiment: Western blot of Sp1, Sp3 and Sp4 protein expression in Panc-1 cells. As to conditions: for Sp1, Sp3, and Sp4 protein expression: Western blot, vs DMSO.
In assay [2] the test system is VEGF promoter constructs pVEGF1 and pVEGF2. The experiment in a line: VEGF promoter (pVEGF1/pVEGF2) luciferase transactivation in Panc-1 cells. As to conditions: Panc-1 cells; for transactivation of pVEGF2, concentration dependence: 20-80 μM. The procedure:
Transfection of Panc-1 cells with pVEGF1 and pVEGF2 and treatment with 50 μM ampiroxicam and tolfenamic acid (FIGS. 2A, 2B) or diclofenac sodium (FIGS. 2C, 2D) with pVEGF1 or pVEGF2 constructs. Cells were transfected with pVEGF1 or pVEGF2 treated with DMSO, 50 μM ampiroxicam, tolfenamic acid, or diclofenac sodium, and luciferase activity determined. Transfection of L3.6pl cells with pVEGF1 (FIG. 2E) or pVEGF2 constructs (FIG. 2F). […] Panc-1 cells were transfected with pVEGF2, treated with 20, 40, 60 or 80 μM ampiroxicam or tolfenamic acid, and luciferase determined. Results presented herein are means ±SE for three separate determinations per treatment group, and significant (p<0.05) decrease in luciferase activity is indicated by an asterisk.
Cells are cultured in 6-well plates in 2 ml of DME/F12 medium supplemented with 5% fetal bovine serum. After 16-20 hr when cells are 50-60% confluent, reporter gene constructs are transfected using LIPOFECTAMINE™ reagent (Invitrogen, Carlsbad, Calif.). The effects of the selective non-steroidal anti-inflammatory drugs on transactivation are investigated in Panc1 and L3.6pl cells co-transfected with different VEGF constructs (500 ng). […] For proteasome inhibitor experiments, cells will be co-treated with 2 μM lactacystin, and for electrophoretic mobility shift assay (EMSA), nuclear extracts from Panc1 and L3.6pl cells are isolated as described, and aliquots will be stored at −80° C. until used (Abdelrahim et al, 2004; Abdelrahim et al, 2005).
Previous studies have shown COX-2 inhibitors or small interfering RNAs for Sp proteins decreased vascular endothelial growth factor expression in colon and pancreatic cells (Abdelrahim et al, 2005; Baker et al, 2002; Masferrer et al, 2000; Bouwman et al, 2002). The effects of DMSO, 50 μM tolfenamic acid and 50 μM ampiroxicam on vascular endothelial growth factor expression were initially investigated in Panc-1 cells transfected with the pVEGF1 and pVEGF2 constructs, which contain −2018 to +50 and −131 to +54 VEGF promoter inserts, respectively (FIGS. 2A and 2B).

In assay [3] the test system is VEGF-B/VEGFR1 signaling (MAPK1/2 phosphorylation). As to the kind of experiment: VEGF-B activation of MAPK in Panc-1 cells. As to conditions: 50 μM pretreatment for 36 hr, VEGF-B 5 or 10 min. The procedure:
Cells were pretreated with DMSO, 50 μM ampiroxicam, or 50 μM tolfenamic acid for 36 hr; VEGF-B (50 ng/ml) was added for 5 or 10 min, and whole cell lysates were obtained and analyzed by Western blot. Cell migration assay (FIG. 18C). […] Immunostaining of pancreatic tumors (FIG. 18D). Pancreatic tumors from athymic nude mice treated with solvent (control), gemcitabine (50 mg/kg), or tolfenamic acid (25 and 50 mg/kg) (Dick, 1996) were stained with VEGFR1 antibodies as described below and in a previous report (Dick, 1996).
Panc-1 cells were pretreated with DMSO, 50 μM ampiroxicam, or 50 μM tolfenamic acid for 48 h, and then were treated with VEGF-B (50 ng/ml) for 5 and 10 min. MAPK phosphorylation in the various treatment groups was then determined by western immunoblot analysis as described above. For migration assays, Panc-1 cells were seeded in triplicate in six-well collagen IV coated plates and then treated with the selected non-steroidal anti-inflammatory drugs for 24 h before the scratch was made. […]
Previous studies have reported that activation of VEGFR1 by VEGF-B in pancreatic cancer cells results in enhanced phosphorylation of MAPK and increased cell migration and invasion. […] The importance of Sp protein in VEGFR1-dependent Panc-1 cell migration was determined using a cell migration assay on collagen IV-coated plates.

For assay [4], the system named is VEGF. As to the kind of experiment: Immunostaining of VEGF in Panc-1 cells. As to conditions: 50 μM, 48 hr. Here is the method: Panc1 cells are seeded in LAB-TEK® chamber slides (Nalge Nunc International, Naperville, Ill.) at 100,000 cells/well in DME/F12 medium supplemented with 5% fetal bovine serum. Cells are treated with the selected non-steroidal anti-inflammatory drugs and after 48 hr, the media chamber is detached and the remaining glass slides washed in Dulbecco's phosphate buffered saline (PBS). The immunostaining for vascular endothelial growth factor (VEGF) is determined essentially as previously described (Abdelrahim et al, 2005). Briefly, the glass slides are fixed with cold (-20° C.) methanol for 10 min and washed in 0.3% PBS/Tween for 5 min (two times) before blocking with 5% goat serum in antibody dilution buffer (stock solution: 100 ml of PBS/Tween, Ig of bovine serum albumin, 45 ml of glycerol, pH 8.0) for 1 hr at 20° C. After removal of the blocking solution, VEGF rabbit polyclonal antibody (A-20) is added in antibody dilution buffer (1:200) and incubated for 12 hr at 4° C. Slides are washed for 10 min with 0.3% Tween in 0.02 M phosphate buffered saline (three times) and incubated with fluorescein isothiocyanate-conjugated (FITC) goat anti-rabbit antibodies (1:1000 dilution) for 2 hr at 20° C. Slides are then washed for 10 min in 0.3% PBS-Tween (four times). […]

Entries after “also recorded” stand apart in the source; their conditions may differ.

Regarding `CCOC(=O)OC(C)OC1=C(C(=O)Nc2ccccn2)N(C)S(=O)(=O)c2ccccc21` (centres unmarked) [ampiroxicam], the “Sp1, Sp3, and Sp4 protein expression” value in assay [1] (50 μM, 48 hr) was “had no effect; also recorded: did not affect Sp protein levels”. For the same compound, in assay [1] (150 μM, 48 hr (concentration of comparable growth inhibition)), the Sp protein degradation result is listed as “only tolfenamic acid induced protein degradation”. For the same compound, the “luciferase activity, pVEGF1 and pVEGF2 constructs” value in assay [2] (50 μM) is recorded as “but not ampiroxicam, significantly decreased activities”. In addition, in assay [2] (50 μM, in presence or absence of lactacystin), the “luciferase activity, pVEGF2” value is recorded as “did not affect luciferase activity”. The “transactivation of pVEGF2, concentration dependence” value in assay [2] is reported as “showed no effect”. The “VEGF-B-induced phosphorylation of MAPK1/2” value in assay [3] is given as “increased phosphorylation of MAPK1/2”. Moreover, the “immunostaining of secreted vascular endothelial growth factor protein” value in assay [4] is reported as “significant lawn of extracellular vascular endothelial growth factor staining”.

With `Cc1c(Cl)cccc1Nc1ccccc1C(=O)O` [tolfenamic acid], in assay [1] (50 μM, 48 hr), the “decrease in levels of Sp1, Sp3, and Sp4 proteins” value is “greater than 80%”; the “order of potency for decreased expression of Sp1, Sp3, and Sp4 proteins” value was “tolfenamic acid>diclofenac˜diflunisal”; the “Sp1, Sp3, and Sp4 protein expression” value is “decreased expression of Sp1, Sp3, and Sp4 proteins; also recorded: induced protein degradation”. Further, in assay [2] (50 μM), the “luciferase activity, pVEGF1 and pVEGF2 constructs” value is on record as “significantly decreased activities”. Besides, the “transactivation of pVEGF2, concentration dependence” value in assay [2] is given as “concentration-dependent decrease in transactivation”. In addition, the “VEGF-B-induced phosphorylation of MAPK1/2” value in assay [3] is reported as “decreased phospho-MARK1/2”. Besides, the “immunostaining of secreted vascular endothelial growth factor protein” value in assay [4] is “almost non-detectable”.

These data come from patent publication US20080261911A1, “Uses of diphenyl/diphenylamine carboxylic acids” (priority 2006, published 2008).
